Columns and labels:
[1] = tested on: cisplatin-resistant LLC tumors; assay: Survival of mice with cisplatin-resistant LLC tumors; assay type: in vivo, mouse; conditions: for First Death / Maximal Survival / Median Survival Time: LLC-CR, C57B6/J mice, epacadostat 200 mg/kg, AT-0174 170 mg/kg P.O., anti-PD-1 10 mg/kg i.p. every 3 days
Experimental: To investigate the synergy of immune response on tumors between the dual IDO1/TDO inhibitor AT-0174 and an immune checkpoint inhibitor, the compound was tested in mice with cisplatin-resistant lung cancer tumors with and without with anti-PD1 antibody co-treatment.
LLC-CR (1×10^6) cells were subcutaneously injected into the flank of C57B6/J mice (6 mice per group, age 8 weeks) and allowed to grow for 3 days (average tumor size=50 mm^3) before being treated with IDO1 inhibitor epacadostat at 200 mg/kg daily (a supra-maximal dose) or with AT-0174 at 170 mg/kg. Both compounds were administered via oral gavage (P.O.) in 95% water+5% methylcellulose (0.5%). Anti-mouse PD-1 MAb clone RMPi-14 was used as checkpoint inhibitor and administered via intraperitoneal injection (i.p.) at a dose of 10 mg/kg every 3 days.

[2] = tested on: kynurenine (KYN) and tryptophan (TRP) levels in mouse serum; assay: KYN and TRP measurements, LLC-CR-bearing mice; assay type: in vivo; conditions: AT-0174 170 mg/kg, epacadostat 200 mg/kg P.O. daily
Experimental: LLC or LLC-CR (1×10^6) cells were subcutaneously injected into the flank of C57B6/J male and female mice (5 mice per group, age 6-8 weeks, Jackson laboratory) and allowed to grow for 3 days (average tumor size=50 mm^3) before being treated with the selective IDO1 inhibitor epacadostat at 200 mg/kg daily or with AT-0174 at 170 mg/kg daily (a dual inhibitor of IDO1 and TDO enzymes). Both compounds were administered via oral gavage (P.O.) and diluted with 95% water+5% methylcellulose (0.5%) and stored at −20° C. Compound was prepared every 5 days. Methyl cellulose (95+5%) was used as control (“Veh”). Tumor growth was evaluated every 2 days by measuring tumor volume with calipers according to the following formula: tumor volume=width^2×length×0.5. At the end of the study, mice were sacrificed and the blood, tumor, and lymph nodes were collected and processed for KYN and tryptophan (TRP) measurement and immune cell assessment respectively.
Blood samples were collected via cardiac puncture from mice at the time of sacrifice and the Biochrom 30 amino acid analyzer (using ion exchange chromatography) was used to analyze free amino acids in samples. Briefly, 200 μL of serum extract and equal volume of 30% v/v deproteinization agent (sulfosalicylic acid) were mixed and vortexed for 10 s. Samples were then incubated at 55° C. for 20 min, spin down at 2500 g for 20 min at 4° C. Supernatant were collected, filtered through a 0.22 μm filter, and injected into the Biochrom 30. Values were reported compared to normal ranges in controls. Samples used in ion exchange chromatography are separated in an analytical fashion with an ion exchange column and buffers of increasing pH and ionic strength. After post-column derivatization with Ninhydrin, and colorimetric intensity recordings at 570 nm and 440 nm, the amino acids separated by chromatography were detected. Amino acid concentration was calculated by comparing the peak area of a particular amino acid to the peak area of an internal standard-AEC of known concentration, and then multiplying by its specific response factor from calibration.

[3] = MTT cell viability in the cellular IDO1/TDO experiments; assay type: cell-based; conditions: mouse, read-out: Cytotoxicity IC50
Experimental: The viability of the cells in each well in the same experiment was determined using the 3-(4,5-dimethylthiazolyl-2-yl)-2,5-diphenyltetrazolium bromide (MTT) colourimetric assay. After the removal of the supernatant for determination of IDO1 inhibition, the cells were incubated with MTT (500 μg/mL) until crystal formation was observed. Plates were centrifuged for 15 min at 2500 g, and then all the supernatant in then wells was discarded. DMSO (100 μL/well) was added to dissolve the crystals and then the absorbance in each well was measured at 570 nm. Cell viability in each well was expressed as a percentage of untreated controls. Triplicate cultures were used for all experiments unless stated otherwise.
The viability of the cells in each well in the same experiment was determined using the 3-(4,5-dimethylthiazolyl-2-yl)-2,5-diphenyltetrazolium bromide (MTT) colourimetric assay.

[4] = tested on: lung cancer cell line SC (cisplatin-resistant); assay: Growth inhibition and cytotoxicity assay (trypan blue), SC cells; assay type: cell-based; conditions: Homo sapiens
Experimental: (§1) In this study 3 different human-derived lung cancer cell lines were exposed to vehicle control (parental cells B, S and A) or long-term incubation with cisplatin (BC, SC and ALC cells). Long-term incubation with cisplatin induced cisplatin-resistance in the BC, SC and ALC cell lines.
(§2) Cells were seeded in 24-well dishes and treated with various concentrations of inhibitors (i.e. Epacadostat or AT-0174). Briefly, the culture media as well as the trypsinized cells were collected and this mixture was centrifuged at 400×g for 5 min. The supernatant was discarded, re-suspended in 1 mL of Hank's buffer, and assayed for live cells and death cells using trypan blue exclusion method.
(§3) Data from in vitro experiments were performed from three separate biological replicates which were isolated and analyzed in technical triplicates. Separate measurements using the two-tailed t-test and the results were expressed as mean±standard deviation.

[5] = biological target: Recombinant human IDO1 (rhIDO1) (Homo sapiens (Human), UniProt P14902); assay: Enzymatic assay for IDO1 activity; assay type: biochemical; conditions: read-out: Isolated IDO1 Enayme Assay IC50
Chain of Recombinant human IDO1 (rhIDO1) (P14902 whole entry): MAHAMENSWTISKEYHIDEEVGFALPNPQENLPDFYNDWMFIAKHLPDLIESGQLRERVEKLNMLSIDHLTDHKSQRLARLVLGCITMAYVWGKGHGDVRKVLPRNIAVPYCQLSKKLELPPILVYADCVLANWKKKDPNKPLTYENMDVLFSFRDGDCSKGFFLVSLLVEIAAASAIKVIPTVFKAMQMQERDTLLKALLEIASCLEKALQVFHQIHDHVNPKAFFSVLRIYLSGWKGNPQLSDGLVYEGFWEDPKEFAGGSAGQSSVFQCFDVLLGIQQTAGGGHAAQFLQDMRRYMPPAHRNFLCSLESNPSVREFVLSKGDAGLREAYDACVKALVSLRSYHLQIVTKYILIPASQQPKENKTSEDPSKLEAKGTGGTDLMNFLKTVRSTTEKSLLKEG
Experimental: Recombinant human IDO1 (rhIDO1) was expressed and purified from cultures of EC538 strain of E. coli transformed with pREP4 and pQE9-IDO plasmid. Reaction mixes were set up in 384-well microplates containing 50 mM phosphate buffer, 10 mM ascorbic, 10 μM methylene blue, 100 μg/mL catalase, 80 μM TRP, 0.01% Tween 20 (v/v) mixed with rhIDO1 (15 μL) at a final concentration of 9 nM in a total volume of 30 μL assay medium. The plates were incubated at 37° C. for 30 min, and the enzymatic reaction was terminated by adding piperidine (200 mM) and heated at 65° C. for 20 min. Fluorescence intensity was read at λex 400 nm and λem 500 nm. Test compounds were dissolved in 100% DMSO and pre-diluted in assay medium prior to adding rhIDO1. IDO1 inhibition (%) was calculated as
All experiments were carried out in triplicates, and statistical Analyses were conducted in Prism v5 (Graphpad Software, Inc., La Jolla, CA, USA).

[6] = tested on: lung cancer cell line BC (cisplatin-resistant); assay: Growth inhibition and cytotoxicity assay (trypan blue), BC cells; assay type: cell-based; conditions: Homo sapiens
Experimental: as §1, §2, §3

[7] = tested on: lung cancer cell line ALC (cisplatin-resistant); assay: Growth inhibition and cytotoxicity assay (trypan blue), ALC cells; assay type: cell-based; conditions: Homo sapiens
Experimental: as §1, §2, §3

[8] = tested on: lung cancer cell line A (cisplatin-sensitive); assay: Growth inhibition and cytotoxicity assay (trypan blue), A cells; assay type: cell-based; conditions: Homo sapiens
Experimental: as §1, §2, §3

[9] = tested on: lung cancer cell line B (cisplatin-sensitive); assay: Growth inhibition and cytotoxicity assay (trypan blue), B cells; assay type: cell-based; conditions: Homo sapiens
Experimental: as §1, §2, §3

Question: What does the source list for `NS(=O)(=O)NCCNc1nonc1C(=NO)Nc1ccc(F)c(Br)c1` [Epacadostat, epacadostat, reference compound]?
Answer: First Death [1]: 24 days; Maximal Survival [1]: 35 days; Median Survival Time [1]: 25 days; KYN/TRP Ratio [2]: 2.01 ± 0.32; Kynurenine [2]: 81.8 ± 11.9; Tyrptophan [2]: 43 ± 5.8

Question: With `Nc1noc2nc(Cl)c(F)cc12` [Compound 66, 6-Chloro-5-fluoroisoxazolo[5,4-b]pyridin-3-amine] as the compound, how does the IC50 at 24 h [3] read?
Answer: > 100 µM

Question: What about the viability at 12.5 µM ([4]; 12.5 μM AT-0174) of the same compound?
Answer: 65.7 ± 6.4%

Question: What about the viability at 25 µM ([4]; 25.0 μM AT-0174) of the same compound?
Answer: 68.1 ± 2.1%

Question: What about the viability at 50 µM ([4]; 50.0 μM AT-0174) of the same compound?
Answer: 70 ± 2.1%

Question: What about the IC50 [5] of the same compound?
Answer: < 1 µM

Question: And the viability at 12.5 µM ([6]; 12.5 μM AT-0174)?
Answer: 78.8 ± 6.4%

Question: What about the viability at 25 µM ([6]; 25.0 μM AT-0174) of the same compound?
Answer: 65.3 ± 0.7%

Question: And the viability at 50 µM ([6]; 50.0 μM AT-0174)?
Answer: 59.9 ± 4.9%

Question: And the viability at 12.5 µM ([7]; 12.5 μM AT-0174)?
Answer: 76.7 ± 4.2%

Question: And the viability at 25 µM ([7]; 25.0 μM AT-0174)?
Answer: 62.5 ± 4.9%

Question: What about the viability at 50 µM ([7]; 50.0 μM AT-0174) of the same compound?
Answer: 67.3 ± 13.4%

Question: What about the viability at 12.5 µM ([8]; 12.5 μM AT-0174) of the same compound?
Answer: 92.8 ± 8.5%

Question: And the viability at 25 µM ([8]; 25.0 μM AT-0174)?
Answer: 75.1 ± 14.1%

Question: And the viability at 50 µM ([8]; 50.0 μM AT-0174)?
Answer: 74.4 ± 7.1%

Question: And the “effect on survival” value ([1]; LLC-CR mice, given alone)?
Answer: increased survival to a greater extent than the selective agent

Question: And the “First Death” value [1]?
Answer: 36 days

Question: What about the “Maximal Survival” value [1] of the same compound?
Answer: 43 days

Question: And the “Median Survival Time” value [1]?
Answer: 36 days

Question: And the “KYN/TRP Ratio” value [2]?
Answer: 1.18 ± 0.31

Question: What about the Kynurenine [2] of the same compound?
Answer: 50 ± 9.7

Question: And the Tyrptophan [2]?
Answer: 85.8 ± 8.3

Question: And the viability at 12.5 µM ([9]; 12.5 μM AT-0174)?
Answer: 84.8 ± 11.3%

Question: What about the viability at 25 µM ([9]; 25.0 μM AT-0174) of the same compound?
Answer: 97.9 ± 2.1%

Question: What about the viability at 50 µM ([9]; 50.0 μM AT-0174) of the same compound?
Answer: 92.2 ± 15.6%

Source: US20250186410A1, “DUAL INHIBITORS OF TRYPTOPHAN DIOXYGENASES (IDO1 AND TDO) AND THEIR USE IN THERAPY” (ANTIDO THERAPEUTICS INTERNATIONAL SÀRL, priority 2022, published 2025)
